Here are results for one compound from ChEMBL document CHEMBL5214954, “Identification of PI3K/HDAC Dual-targeted inhibitors with subtype selectivity as potential therapeutic agents against solid Tumors: Building HDAC6 potency in a Quinazolinone-based PI3Kδ-selective template” (Bioorg Med Chem, 2022).

pIC50: −log10 of the molar value.

This experiment addresses T1, Protein deacetylase HDAC6 (Homo sapiens, UniProt Q9UBN7).
T1 sequence (Q9UBN7 whole entry): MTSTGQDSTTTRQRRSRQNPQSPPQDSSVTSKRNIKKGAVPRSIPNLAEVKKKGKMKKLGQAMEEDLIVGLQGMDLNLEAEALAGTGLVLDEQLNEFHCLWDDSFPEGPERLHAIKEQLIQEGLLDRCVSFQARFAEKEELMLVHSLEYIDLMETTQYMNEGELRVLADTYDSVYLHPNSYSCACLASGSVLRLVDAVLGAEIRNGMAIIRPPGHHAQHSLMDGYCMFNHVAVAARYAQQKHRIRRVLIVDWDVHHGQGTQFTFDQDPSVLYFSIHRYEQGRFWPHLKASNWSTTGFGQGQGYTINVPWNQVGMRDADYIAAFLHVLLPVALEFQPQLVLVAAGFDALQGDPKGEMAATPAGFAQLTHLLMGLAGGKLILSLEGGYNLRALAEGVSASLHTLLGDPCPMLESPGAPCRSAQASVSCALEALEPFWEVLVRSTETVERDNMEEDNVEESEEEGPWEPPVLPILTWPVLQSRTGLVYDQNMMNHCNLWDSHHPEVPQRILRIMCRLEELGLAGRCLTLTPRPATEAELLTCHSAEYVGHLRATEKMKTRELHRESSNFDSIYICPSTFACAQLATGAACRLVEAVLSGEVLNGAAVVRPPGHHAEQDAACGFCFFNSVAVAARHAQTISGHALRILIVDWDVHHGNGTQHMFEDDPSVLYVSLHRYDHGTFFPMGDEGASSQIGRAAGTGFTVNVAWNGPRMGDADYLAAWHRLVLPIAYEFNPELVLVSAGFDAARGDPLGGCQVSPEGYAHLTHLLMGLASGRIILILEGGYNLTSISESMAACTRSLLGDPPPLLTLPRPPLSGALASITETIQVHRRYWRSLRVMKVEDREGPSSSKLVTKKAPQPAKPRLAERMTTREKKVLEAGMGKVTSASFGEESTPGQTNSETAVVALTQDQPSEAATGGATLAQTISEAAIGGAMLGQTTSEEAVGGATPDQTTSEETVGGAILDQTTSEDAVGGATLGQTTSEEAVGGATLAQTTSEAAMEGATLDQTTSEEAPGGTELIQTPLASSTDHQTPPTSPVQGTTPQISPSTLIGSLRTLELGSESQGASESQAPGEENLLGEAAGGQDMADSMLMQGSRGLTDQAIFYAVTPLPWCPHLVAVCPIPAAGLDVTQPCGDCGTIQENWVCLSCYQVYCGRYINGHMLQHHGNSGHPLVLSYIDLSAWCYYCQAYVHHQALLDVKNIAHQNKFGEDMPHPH
Description: Inhibition of HDAC6 (unknown origin) measured by fluorescence based assay

By pIC50 is commonly meant the IC50 on a negative log10 scale, so that one unit is a factor of ten. For the compound `N#Cc1c(N)nc(N)nc1N1CC2(CC2)C[C@H]1c1nc2cccc(Cl)c2c(=O)n1Cc1ccc(C(=O)NO)s1`, the pIC50 was 7.89.
